We go through one molecule from paper PMC6934184, “Selective DNA-PKcs inhibition extends the therapeutic index of localized radiotherapy and chemotherapy” (The Journal of Clinical Investigation, 2019).

SMILES strings stand for the structures.

This assay has as its target T1, CDC42 BPA (MRCKA) (Homo sapiens, UniProt Q5VT25).
T1 construct: purchased Thermo Fisher Scientific (Life Technologies) SelectScreen
Description: SelectScreen Z'LYTE. Format: biochemical. Put shortly: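 NU5455 was profiled across the SelectScreen Broad panel of kinase activity and binding assays. Z'LYTE reactions such as CSF1R ran at apparent Km ATP, while the Adapta CAMK1 assay used ATP listed as 10. Values are given as percent.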

T1 sequence (Q5VT25 whole entry): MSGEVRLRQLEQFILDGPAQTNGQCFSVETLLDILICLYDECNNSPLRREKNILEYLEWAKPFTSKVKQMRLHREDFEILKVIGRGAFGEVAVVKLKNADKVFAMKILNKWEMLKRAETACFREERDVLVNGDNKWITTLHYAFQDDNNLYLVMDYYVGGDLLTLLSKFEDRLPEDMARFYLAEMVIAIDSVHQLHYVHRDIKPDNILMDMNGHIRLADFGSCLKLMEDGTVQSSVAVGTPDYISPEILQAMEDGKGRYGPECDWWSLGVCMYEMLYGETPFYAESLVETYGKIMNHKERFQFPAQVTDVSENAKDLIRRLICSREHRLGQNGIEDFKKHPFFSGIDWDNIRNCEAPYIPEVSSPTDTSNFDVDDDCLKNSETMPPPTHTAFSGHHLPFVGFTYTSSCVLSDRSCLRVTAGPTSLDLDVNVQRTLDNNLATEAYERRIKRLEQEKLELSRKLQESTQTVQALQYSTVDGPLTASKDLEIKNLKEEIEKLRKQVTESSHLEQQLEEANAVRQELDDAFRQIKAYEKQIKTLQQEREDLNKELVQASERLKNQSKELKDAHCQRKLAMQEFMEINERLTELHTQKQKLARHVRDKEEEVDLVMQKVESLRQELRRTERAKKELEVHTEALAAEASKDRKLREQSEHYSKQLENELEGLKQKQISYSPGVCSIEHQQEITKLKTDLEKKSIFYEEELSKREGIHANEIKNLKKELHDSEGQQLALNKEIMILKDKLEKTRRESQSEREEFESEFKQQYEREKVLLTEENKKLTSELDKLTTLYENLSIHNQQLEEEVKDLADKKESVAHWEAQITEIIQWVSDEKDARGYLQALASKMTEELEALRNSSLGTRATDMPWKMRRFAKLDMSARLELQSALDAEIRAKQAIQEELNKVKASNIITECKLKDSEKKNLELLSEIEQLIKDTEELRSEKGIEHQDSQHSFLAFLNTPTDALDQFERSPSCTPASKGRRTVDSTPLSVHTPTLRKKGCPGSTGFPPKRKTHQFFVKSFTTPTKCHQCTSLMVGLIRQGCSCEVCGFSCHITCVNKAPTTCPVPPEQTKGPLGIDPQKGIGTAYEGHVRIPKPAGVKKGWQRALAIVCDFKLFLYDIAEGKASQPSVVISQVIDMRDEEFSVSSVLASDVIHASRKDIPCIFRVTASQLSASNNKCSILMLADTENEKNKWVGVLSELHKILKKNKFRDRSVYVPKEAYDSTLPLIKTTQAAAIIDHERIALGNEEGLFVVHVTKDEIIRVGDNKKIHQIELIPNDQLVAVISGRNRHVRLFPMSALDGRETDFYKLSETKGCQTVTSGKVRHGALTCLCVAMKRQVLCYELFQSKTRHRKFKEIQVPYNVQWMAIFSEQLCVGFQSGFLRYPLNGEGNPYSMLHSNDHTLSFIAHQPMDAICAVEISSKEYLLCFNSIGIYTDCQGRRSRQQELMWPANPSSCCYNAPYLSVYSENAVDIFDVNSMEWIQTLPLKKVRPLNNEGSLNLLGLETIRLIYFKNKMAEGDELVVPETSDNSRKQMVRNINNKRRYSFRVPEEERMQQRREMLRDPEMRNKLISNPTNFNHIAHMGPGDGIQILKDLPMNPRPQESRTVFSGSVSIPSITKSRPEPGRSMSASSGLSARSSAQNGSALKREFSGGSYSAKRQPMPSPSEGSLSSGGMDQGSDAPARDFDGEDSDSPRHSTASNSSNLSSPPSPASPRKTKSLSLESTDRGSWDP

In general, inhibition refers to the drop in the measured response relative to a control, in per cent. Read a low inhibition as a response near the control. Regarding `CN(C(=O)CN1CCOCC1)c1ccc2sc3c(-c4cccc5c(=O)cc(N6CC7CCC(C6)O7)oc45)cccc3c2c1` [NU5455], testing at 1 µM gave an inhibition of 5%.
